# Source: patent publication US11712432B2, “Method of treating cancer with an elevated glycogen content” (University of Kentucky Research Foundation, priority 2018, dated 2023)
# “Also recorded” adds a separate entry of the source. Where two headings read alike, the source gives them in different places.
# Experiments:
# A549 adenoma cells = assay: A549 cells treated with increasing concentrations of DAB; type: cell-based; settings: Homo sapiens, FIG. 32A
# Source text: (§1) FIGS. 32A-B show graphs illustrating in vitro and in vivo efficacy of the glycogen phosphorylase inhibitor 1,4-dideoxy-1,4-imino-d-arabinitol (DAB) in non-small cell lung cancer.
# A549 xenografts = assay: A549 xenograft, tumor size; type: in vivo, athymic nude mice; settings: 20 mg/kg daily intraperitoneal vs PBS, 15 weeks
# Method: as §1
# For in vivo tumor growth, H1299, H2030 and A549 cells were dissociated into single cells, counted and resuspended at 5×10^6 cells per 100 μl of 1:1 media/matrigel (BD). 8-10-week-old female Foxn1^nu/Foxn1^nu(Nude) mice (JAX Laboratories) were injected subcutaneously with 5×10^6 cells on both sides of the flanks. Tumor growth was measured twice a week by caliper in a non-blinded fashion. Tumors were allowed to grow upwards of 1000 mm^3. All mouse experiments were approved by the BCH Animal Care and Use Committee and by the University of Kentucky Institutional Animal Care and Use Committee, both accredited by the Association for Assessment and Accreditation of Laboratory Animal Care and were performed in accordance with relevant institutional and national guidelines and regulations.
# [1] = tested on: A673 Ewing's sarcoma cells; assay: Cell viability after guaiacol treatment, A673; type: cell-based; settings: Homo sapiens
# Method: (§2) (A) A673 Ewing's sarcoma cells were treated with increasing concentrations of guaiacol. […] (E) A673 cells (10^7) were injected subcutaneously in athymic nude mice and when the tumor reached 0.1 cm^3 in size, a daily intraperitoneal injection was initiated of either PBS or guaiacol (20 mg/kg) and tumor size was measured over 15 weeks.
# (§3) Glycogen metabolism has not been evaluated as an anti-cancer target in ES. Guaiacol is a naturally occurring compound that is a GYS inhibitor. […] Cell viability after treatment of guaiacol was assessed at various concentrations for 48 hrs in three different ES cell lines (TC32, A673 and HS822T).
# TC32 = assay: Cell viability after guaiacol treatment, TC32; type: cell-based; settings: Homo sapiens, TC-32; TC32, 48 hrs; read-out: IC50 (50% cell viability)
# Method: as §3, with “Guaiacol as a therapeutic agent to target ES in vitro and in vivo. Glycogen” for “Glycogen”, “HS822T). Guaiacol IC50 (50% cell viability) for all three cell lines is ˜20 μM which corresponds to a 3-fold reduction in total glycogen (A673 is shown in FIGS. 31A-C).” for “HS822T).”
# HS822T = assay: Cell viability after guaiacol treatment, HS822T; type: cell-based; settings: 48 hrs, read-out: IC50 (50% cell viability)
# Method: as §3, with “Guaiacol as a therapeutic agent to target ES in vitro and in vivo. Glycogen” for “Glycogen”, “HS822T). Guaiacol IC50 (50% cell viability) for all three cell lines is ˜20 μM which corresponds to a 3-fold reduction in total glycogen (A673 is shown in FIGS. 31A-C).” for “HS822T).”
# A673 = assay: Total glycogen in guaiacol treated ES cell lines; type: cell-based; settings: at ~20 μM (IC50), A673 shown
# Method: Cells were washed twice in PBS and then lysed in 20 mM NaAcetate pH 5.3, 150 mM NaCl, 10% (v/v) glycerol, 1% (v/v) NP-40. Lysates were centrifuged at 10,000×g at 4° C. for ten minutes. Cleared lysates or purified glycogen were dissolved in ddH2O, followed by acid hydrolysis with 2N HCL for 3 h at 98° C. The reaction was quenched with 2N NaOH for subsequent experiments. Glycogen-derived glucose molecules were measured by either biochemical assay or gas chromatography-mass spectrometry (GC-MS). For the biochemical assay, a portion of the digested lysate was incubated for half an hour at room temperature with 100 U L^−1 of both hexokinase and glucose-6-phosphate dehydrogenase (Sigma) in 50 mM Tris-HCl pH 7.5, 5 mM MgCl2, 0.5 mM ATP, 0.5 mM NAD^+. The absorbance was measured at 340 nm using glucose standards to determine glycogen concentration in lysates; undigested lysates were used for background subtraction. […]
# Guaiacol as a therapeutic agent to target ES in vitro and in vivo. Glycogen metabolism has not been evaluated as an anti-cancer target in ES. […] Cell viability after treatment of guaiacol was assessed at various concentrations for 48 hrs in three different ES cell lines (TC32, A673 and HS822T). […]
# A673 xenograft tumors = assay: Normalized glycogen levels in treated xenograft tumors; type: in vivo, athymic nude mice; settings: FIG. 31C
# Method: as §2, with “FIGS. 31A-E show graphs illustrating in vitro and in vivo efficacy of the glycogen synthase inhibitor guaiacol as an anti-ES agent. (A)” for “(A)”, “guaiacol. (B) The IC50 for guaiacol is ˜20 μm in A673 cells.” for “guaiacol.”
# (§4) The efficacy of guaiacol was further tested in the xenograft model of ES. A673 cells (10^6) were injected subcutaneously in athymic nude mice and when the tumor reached 0.1 cm^3 in size daily IP injection of either PBS or guaiacol (20 mg/kg) was initiated and tumor size was measured over 15 weeks.
# AMPK [2] = assay: Metformin induced AMPK activation (p-ACC) in guaiacol treated cells; type: cell-based; settings: guaiacol treated cells plus metformin
# A673 xenograft = A673 xenograft model of ES, tumor size; type: in vivo, athymic nude mice; settings: 20 mg/kg daily intraperitoneal vs PBS, 15 weeks
# Method: as §2, with “FIGS. 31A-E show graphs illustrating in vitro and in vivo efficacy of the glycogen synthase inhibitor guaiacol as an anti-ES agent. (A)” for “(A)”, “guaiacol. (B) The IC50 for guaiacol is ˜20 μm in A673 cells.” for “guaiacol.”
# as §4
# [3] = Tolerability in xenograft mice (body weight, motor and behavior testing); type: in vivo; settings: 20 mg/kg daily IP, athymic nude mice
# Method: as §4
# [4] = general statement; cited from earlier work
# [5] = general statement; cited from earlier work; remark: listed apart in the source
# HEK293 cells = assay: GP localization by immunofluorescence after leptomycin; type: cell-based; settings: leptomycin B for 3 hours
# Source text: FIGS. 11A-E show images illustrating that malin ubiquitination of GPBB drives nuclear localization. (A) Immunoblotting analysis of HSP70, laforin, glycogen debranching enzyme (GDE), branching enzyme (BE), and glycogen phosphorylase (GP) with anti-tubulin (Tub) as the loading control in empty vector (EV) or malin-overexpressing (malin-OE) HEK293 cells. (B) Localization of exogenously expressed malin and GP in HEK293 cells assessed by immunofluorescence. (C) In vitro ubiquitination assay using recombinant E1, E2 (UbcH5a), malin, and myc-GP followed by immunoprecipitation with anti-myc, SDS-PAGE, and immunoblotting analysis with an antibody detecting ubiquitin. (D) Effect of inhibition of nuclear […] with leptomycin on GP localization. HEK293 cells were transfected with GFP-MEK or empty vector for the analysis of endogenous GP. Twenty-four hours post-transfection, cells were exposed to leptomycin B for 3 hours, and protein localization was assessed by immunofluorescence. (E) Schematic model for GP nuclear translocation after malin-mediated ubiquitination. All data are representative of three experiments.
# Since GPBB is a novel malin-interacting protein, malin-dependent regulation of its localization was of interest. GPBB is largely localized to the cytoplasm (FIG. 11B). […]
# AMPK [6] = assay: p-AMPK and p-ACC after metformin treatment of ES cells; type: cell-based
# Method: Whole-cell extracts were generated in RIPA buffer (0.5% deoxycholate, 1% IGEPAL-CA630, 0.1% sodium dodecyl sulfate, 150 mM NaCl, 50 mM Tris-8.1), lysates were cleared by centrifugation and protein concentrations were quantified with the Pierce BCA Protein Assay Kit (Thermo). For western blotting, 25 μg of protein extract per sample was denatured with heat and reducing agents, separated on a 4-12% acrylamide gel (BioRad) and transferred to PVDF (BioRad). Antibodies used for western blotting were: malin (Abcam, 1:1,000), acetyl-H3 (EMDmillipore, 1:1,000), pan-methylation (AbCAM, 1:1,000), myc (Abcam, 1:500), branching enzyme (Lsbio, 1:500), glycogen debranching enzyme (LSBio, 1:1,000), glycogen phosphorylase liver isoform (Cell Signaling Technology 46955 1:2,000), glycogen phosphorylase brain isoform (LSBio, 1:1,000), GAPDH (Abcam 1:1,0000), Histone H3 (Abcam ab1791, 1:20,000), H3K27Ae (Abcam, 1:500), Flag-M2-HRP (Sigma, 1:5000), HSP70 (Abcam, 1:5000) and H3K27me3 (Millipore 07-449; 1:4,000). Each primary antibody was incubated overnight at 4° C. Tubulin (Abcam, 1:20,000) was used as a loading control. All antibodies have detailed species validation available online from vendors. The secondary antibody anti-rabbit IgG, HRP-linked Antibody (Cell Signaling 7074, 1:5,000) or anti-mouse IgG, HRP-linked antibody (Cell Signaling 7076, 1:5,000) was incubated for 1 h at room temperature. After washing, chemiluminescence images were acquired using the ChemiDocMP (BioRad).
# Malin-overexpression cells are more sensitive to the AMPK-activator metformin. Since aberrant ES-glycogen binds to AMPK with high affinity and is inhibitory over p-AMPK activity, malin-OE cells that normalize glycogen architecture should be more sensitive to AMPK activators. Both A673-EV and A673-malin-OE cells were treated with 2 mM metformin and both p-AMPK and p-ACC were assessed.
# [7] = 2 mM metformin, A673-EV and A673-malin-OE cells
smiles,measurement,setting,value
"OC[C@H]1NC[C@@H](O)[C@@H]1O [DAB, 1,4-dideoxy-1,4-imino-D-Arabinitol]",IC50,A549 adenoma cells,~1500 nM
same,tumor size / xenograft growth,A549 xenografts,failed to continue to proliferate over the course of 15 weeks; also recorded: significantly decreased tumor size as compared to PBS
"COc1ccccc1O [guaiacol, 2-methoxyphenol]",IC50,"[1]; A673, 48 hrs, read-out: IC50 (50% cell viability)",~20 µM
same,IC50,"[1]; A673 cells, FIG. 31B, read-out: IC50",~20 µM
same,IC50,TC32,~20 µM
same,IC50,HS822T,~20 µM
same,reduction in total glycogen,A673,3 fold
same,reduction in normalized glycogen levels,A673 xenograft tumors,3 fold
same,sensitivity to metformin induced AMPK activation (p-ACC),AMPK [2],"more sensitive to metformin induced AMPK activation, showing more prominent increase in p-ACC"
same,reduction in tumor volume at the experiment endpoint,A673 xenograft,4 fold
same,tolerability / adverse side effects,[3],well tolerated in athymic nude mice without any adverse side effects
same,toxicity in vivo,[4],minimal toxicity in vivo
same,bioavailability,[5],high bioavailability
CCC(=C/[C@H](C)C/C=C/C(C)=C/[C@@H](C)C(=O)[C@@H](C)[C@H](O)[C@@H](C)C/C(C)=C/C(=O)O)/C=C/[C@@H]1OC(=O)C=C[C@@H]1C [leptomycin],localization of endogenous GP,HEK293 cells,accumulation of endogenous GP in the nucleus
CN(C)C(=N)N=C(N)N [metformin],p-ACC,AMPK [6]; [7],only the malin-OE cell line showed a significant increase in p-ACC
same,p-AMPK,AMPK [6]; [7],increased p-AMPK in both EV and malin-OE cell lines
same,AMPK activity (p-ACC read out) response to AMPK activator,"AMPK [6]; ES-cells, FIG. 20",insensitive
